Assay results from PMC7268320, “Cerebrospinal fluid penetration of targeted therapeutics in pediatric brain tumor patients” (Acta Neuropathologica Communications, 2020).
Entries after “also recorded” stand apart in the source; their conditions may differ.

Assays:
[1] = Detection of drug metabolites in patient CSF, HPLC-IMS-Q-TOF MS with in silico metabolite prediction; format: in vivo, human
Source text: In a next step, theoretical molecular formulas and related ion masses of the predicted metabolites were transferred into a database and compared to measured high-resolution Q-TOF mass spectra of biological samples. For that purpose, MassHunter Qualitative Workflows B.08.00 software (Agilent Technologies, Santa Clara, California) was used, as it enables (semi)-automated data processing. Within this procedure, theoretical and measured exact ion masses and abundances of isotopologues and molecule-cation adducts were compared. The results of this comparison were then used to evaluate the validity of the identification, which is expressed as a score. This quality measure is important as it reduces the risk of false positives that are likely in complex biological samples, especially when only the accurate mass of a molecule is used. […]
(§1) Metabolite detection and determination of collision cross sections was performed using an IMS-Q-TOF MS within a mass range of 100 – 1700 m/z in QTOF-only and IMS mode respectively. Ionization was again obtained by the means of positive electrospray ionization using 5 L min-1 of nitrogen stream with 300 °C for drying, a capillary voltage of 3.5 kV and a nebulizer pressure of 35 psig. Further parameters included a sheath gas flow of 11 L min-1 at 350 °C and a nozzle voltage of 1 kV. The fragmentor voltage was set to 400 V. Ion mobility experiments were performed with a maximal drift time of 60 ms at a frame rate of 0.9 frames per second resulting in a total of 600 TOF-transients within one frame. Data processing was achieved using IM-MS Browser B.08.00 from Agilent Technologies on the basis of ion

[2] = metabolites detected in CSF; cited from earlier work
[3] = cited from earlier work
ABCB1 = assay: Intracellular drug accumulation in ABCB1-overexpressing KB-C1 cells with or without elacridar (ABCB1 substrate testing), HPLC-QqQ MS; format: cell-based; conditions: fold-change of drug accumulation upon ABCB1-inhibition with elacridar, Fig. 4 coding: > 2 fold-control unfavorable, 1–2 intermediate, < 1 favorable
Method: We first compared interaction of the investigated drugs with ABCB1 by measuring fluorescent substrate drug accumulation in the parental KB-3-1 (a HeLa cell derivative) cell model and its isogenic ABCB1-overexpressing KB-C1 cell model, as previously published. As a known fluorescent ABCB1 substrate calcein (derived from non-fluorescent calcein AM) was used in the presence of investigated drugs (1 μM and 10 μM) using fluorescence-activated cell sorting (FACS). The ABCB1 inhibitor elacridar was used as positive control. As this approach cannot distinguish competitive (by a substrate) and non-competitive (by a pure inhibitor) ABCB1 inhibition, KB-C1 cells were additionally exposed to the examined drugs with or without elacridar to test the actual impact of ABCB1 activity on the concentration of drug within the cells. In detail, cultivated cells were grown, washed, lysed using 100 μL methanol, centrifuged and stored at − 80 C prior to analysis. […] Finally, 100 μL supernatant were collected and analyzed using the developed HPLC-QqQ MS method (see Supplementary Material).
6. Experiments with ABCB1-overexpressing KBC1 cells
Experiments were conducted to test for a possible inhibition or substrate character of the investigatzed […]
Figure S8 ABCB1 testing. (A) Calcein accumulation assay in KB-3-1 (control) and ABCB1-overexpressing KBC1 cells. Bars depict calcein fluorescence intensity measured by fluorescence activated cell sorting (FACS). Higher bars as compared to calcein in ABCB1-overexpressing cells indicate ABCB1-inhibition. Elacridar served as positive control. (B) Accumulation of drugs upon ABCB1-inhibition with elacridar measured by HPLC-QqQ MS.
(without elacridar inhibition).
(1 picture or pasted object on this page, not shown here)

[4] = CSF drug concentration in pediatric brain tumor patients, Ommaya reservoir samples, HPLC-QqQ MS; format: in vivo, human; conditions: for detection in CSF samples / CSF concentration, mean: pediatric brain tumor patients, oral dosing; for CSF penetrance class: CSF concentration class; for CSF concentration, mean: total drug, steady state
Method: Samples were obtained from patients treated at the Department of Pediatrics and Adolescent Medicine at the General Hospital of Vienna and the study was approved by the ethics committee of the Medical University of Vienna. Patient characteristics (age, weight, sex) and clinical data (tumor type, medication, radiotherapy, localization, leptomeningeal disease, serum protein levels, and CSF protein levels) were retrieved from patient charts. Clinical and serum parameters were measured within the same treatment cycle, CSF protein levels at the same date and sample collection time point. Samples were collected and snap frozen within routine clinical sampling during intraventricular chemotherapy administration.
We included samples of patients who received oral small molecule inhibitors and concomitant intraventricular therapy. […] As backbone therapy the majority of patients were treated according to the MEMMAT protocol (NCT01356290) with slight modifications in some cases as indicated in Additional file 1: Table S1. Dosing for pediatric patients was adjusted according to the treatment protocols or previous reports as outlined in Table 1. […] In two cases, samples of patients being sequentially treated with different drugs were collected as indicated in Additional file 1: Table S2. […] CSF samples (< 0.5 mL) of pediatric patients were collected using an Ommaya reservoir, immediately snap frozen and afterwards stored at − 80 °C prior to HPLC-MS analysis. Figure 1 gives general information on the workflow of CSF sample collection, sample preparation and HPLC-MS analysis. Detailed information on the analysis method and the working parameters of the HPLC-MS system(s) can be found in the supplementary material available online (Additional file 1: Figures S1 and S2 and Tables S3–4).
In a first step, we determined whether CSF samples from Ommaya reservoirs analyzed with HPLC-QqQ MS or HPLC-IMS-Q-TOF MS allow reliable detection of orally administered drugs and the respective metabolites. For that purpose, special focus was on the improvement of an HPLC-QqQ MS multi-method to quantitate the respective substances in CSF samples. The applied chromatographic gradient as well as the sensitivity of the MS detection were optimized to allow a quantitation of all mentioned analytes within one run and over a broad range of analyte concentration levels (800 ng L^− 1 to 250 μg L^− 1).
Table S2 Sequential therapies of the investigated drugs in the study cohort. The period to the prior drug is indicated in brackets.
Selleckchem (Houston, TX, USA). Standards were originally prepared as a 10 mM DMSO solution, but were further diluted with methanol to obtain stock solutions containing analyte concentrations of 10 mg L-1 and were stored at 4 °C. The internal standard (ISTD) carbamazepine (> 98 %) was obtained from Sigma-Aldrich Handels GmbH (Vienna, Austria) and used as a methanolic stock solution with a concentration of 2 g L-1, which was diluted as needed.
Succinanilic acid (p.a.) was purchased from Sigma-Aldrich Handels GmbH (Vienna, Austria) diluted to a 400 mg L-1 methanolic stock solution and stored at 4 °C.
All used solvents were HPLC grade and were purchased from VWR International GmbH (Darmstadt, […]
Formic acid (≥ 96 %) was purchased from Sigma-Aldrich Handels GmbH (Vienna, Austria).
Water was used in Millipore quality obtained from a Millipore purification system (Molsheim, France).
CSF samples (< 0.5 mL) of pediatric patients receiving cancer therapy drugs were collected using an Ommaya reservoir, and were stored at -80 °C prior to further analysis.

[5] = Calculated free (protein-unbound) drug levels in CSF, law of mass action; format: in vivo, human; conditions: law of mass action approach; for fraction unbound: human, CSF, oral, read-out: unbound fraction of the total drug amount measured in CSF
Source text: Directly measuring free drug levels in CSF may be impossible due to low drug concentrations. Besides the experimental quantitation, if feasible, also the law of mass action can be used to predict protein-unbound drug levels. Accordingly, CSF proteins and associated drugs may be considered as center and ligand, forming a complex. Consequently, we applied the corresponding mathematical model to estimate free drug concentration. The derivation is given in further detail in the supplementary material.

[6] = Matched serum sample to prove oral uptake of nintedanib, HPLC-MS; format: in vivo, human; conditions: one time point, patient #4
[7] = Collision cross section by HPLC-IMS-Q-TOF MS; format: physicochemical
Source text: Data processing was achieved using MassHunter Workstation Software B.05.02 from Agilent […]
for quantitation, including all transitions and corresponding collision energies as well as fragmentor voltages and retention times.
Table S3 Overview of the used QqQ transitions for quantitative and qualitative characterization in Dynamic MRM Mode using 7 V of cell acceleration voltage, 500 ms cycle time and positive polarization within an Agilent 6420 QqQ.
Compound Precursor Ion Product Ion / r.t. / min Fragmentor / Collision […]
as §1

SMILES	metabolite identification in CSF [1]	Active / Inactive (biological activity of metabolite) [2]	ABCB1 substrate evaluation (ABCB1)	fraction unbound [5]	calculated free, unbound CSF concentration, mean [5] [nM]	CSF penetrance class [4]	CSF concentration, mean [4] [nM]	also measured
Cc1ccc(NC(=O)c2ccc(CN3CCNCC3)cc2)cc1Nc1nccc(-c2cccnc2)n1 [demethylated imatinib]	identified	active						
O=C(O)CCC(=O)Nc1ccccc1 [succinanilic acid]	identified; also recorded: high concentrations	inactive						
Cc1[nH]c2ccccc2c1CCNCc1ccc(/C=C/C(=O)NO)cc1 [panobinostat]			highly transported by ABCB1					panobinostat levels in a published study ([3]; children, higher panobinostat doses): below the detection limit; half-life [3]: 31 h; detection in CSF samples [4]: not detected; also recorded: untraceable
CN(C)C(=O)c1cc2cnc(Nc3ccc(N4CCNCC4)cn3)nc2n1C1CCCC1 [ribociclib]			intermediate	~0.99	43.5	high (high (> 10 nM))	44.1	level detected in CSF of our patient ([4]; pediatric patient, 3.33 mg/kg daily, as quoted in discussion): 43 nM
Cc1nc(Nc2ncc(C(=O)Nc3c(C)cccc3Cl)s2)cc(N2CCN(CCO)CC2)n1 [dasatinib]			highly transported by ABCB1	~0.99	1	moderate (moderate (1–10 nM))	1.2	proportion of CSF samples in which the drug was detected ([4]; CSF samples of pediatric patients): 66%
O=C(CCCCCCC(=O)Nc1ccccc1)NO [vorinostat]			most favorable	~0.99	75.3	high (high (> 10 nM))	75.4	
COC(=O)c1ccc2c(c1)NC(=O)/C2=C(\Nc1ccc(N(C)C(=O)CN2CCN(C)CC2)cc1)c1ccccc1 [nintedanib]			intermediate					detection in CSF samples [4]: not detected; also recorded: not identified; serum concentration [6]: 30 nM
O=C(CCCCCCC(=O)Nc1ccccc1)NO[C@@H]1O[C@H](C(=O)O)[C@@H](O)[C@H](O)[C@H]1O [glucuronidated vorinostat]	identified	inactive						
CNC(=O)c1cc2cnc(Nc3ccc(N4CCNCC4)cn3)nc2n1C1CCCC1 [demethylated ribociclib]	identified	active						
CNC(=O)c1cc(Oc2ccc(NC(=O)Nc3ccc(Cl)c(C(F)(F)F)c3)c(F)c2)ccn1 [regorafenib]			most favorable	< 0.6	3.9	moderate (moderate (1–10 nM))	6.7	protein binding in serum ([3]; serum): 99.5%; CCS value relative to that expected from the MW [7]: significantly lower
